Assays:
[1] = target: T1, O6-methylguanine-methyltransferase (MGMT) (Homo sapiens, UniProt P16455); assay: fluorescence turn-on kinetics with recombinant MGMT, SDS-PAGE in-gel fluorescence, Job's plot; also HeLa S3 lysate labeling; format: binding; details: read-out: fluorescence turn-on kinetics with recombinant MGMT, SDS-PAGE in-gel fluorescenc
T1 construct: recombinant MGMT, about 26 kDa
T1 sequence (P16455 1-207): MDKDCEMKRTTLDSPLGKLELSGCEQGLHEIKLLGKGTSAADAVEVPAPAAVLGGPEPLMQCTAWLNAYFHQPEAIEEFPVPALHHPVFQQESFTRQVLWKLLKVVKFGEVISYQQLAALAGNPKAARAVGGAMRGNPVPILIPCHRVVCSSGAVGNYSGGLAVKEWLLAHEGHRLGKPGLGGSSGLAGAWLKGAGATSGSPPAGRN

[2] = target: T2, human carbonic anhydrase II (hCAII) (Homo sapiens, UniProt P00918); assay: fluorescence turn-on titration with hCAII in PBS; displaced by ethoxzolamide; format: binding
T2 construct: gene CA2

kinact/KI [1] [M⁻¹ s⁻¹]	Kd [2] [nM]	Structure (SMILES)
~715	–	N#C/C(=C\c1cc2c3c(c1)CCCN3CCC2)C(=O)NCc1ccc(COc2nc(N)nc3[nH]cnc23)cc1 [BG-CCVJ]
–	~70	N#CC(=Cc1cc2c3c(c1)CCCN3CCC2)C(=O)NCc1ccc(S(N)(=O)=O)cc1 [SA-CCVJ]

From article PMC5515057, “Protein sensing in living cells by molecular rotor-based fluorescence-switchable chemical probes” (Chemical Science, 2015)
